Assay results from US20260206810A1, “NATURAL SWEETENER COMPOSITIONS AND USES THEREOF” (Firmenich SA, priority 2022, published 2026).
Values joined by “and” are separate entries in the source; they are usually repeats but may differ in a detail not shown here. Equal entries are not always repeated.

Experiment: Visual assessment of sweetener solubilization (solution aspect) at room temperature
Type: physicochemical
Procedure: Unless otherwise stated, the inventive compositions of the examples were prepared according to the following general procedure. Solvent A, Solvent B (or mix of solvents B) and solvent C (or mix of solvents C) were mixed using a mechanical stirrer at room temperature (22° C.) to obtain a clear one-phase liquid. A solid natural sweetener in pure form or a blend of solid natural sweeteners was then added to the transparent solvent mixture and mechanically stirred. Mechanical stirring was maintained until the complete solubilization of the sweetener(s) at room temperature was observed. Comparative compositions were prepared analogously. The tables in the following examples summarize the components used in the inventive and comparative compositions.
Comparative and inventive compositions were prepared according to Table 1 below. The solubilization of the sweetener was assessed visually as a function of time. The stability of the concentrated solution (transparency of the solution) was also assessed visually at room temperature (22° C.) as a function of time.

C=C1C[C@@]23CC[C@H]4[C@@](C)(CCC[C@@]4(C)C(=O)O[C@@H]4O[C@H](CO)[C@@H](O)[C@H](O)[C@H]4O)[C@@H]2CC[C@]1(O[C@@H]1O[C@H](CO)[C@@H](O)[C@H](O[C@@H]2O[C@H](CO)[C@@H](O)[C@H](O)[C@H]2O)[C@H]1O[C@@H]1O[C@H](CO)[C@@H](O)[C@H](O)[C@H]1O)C3 [Reb A (99.5%), Rebaudioside A]
Amount dispersed giving non-complete solubilization and a cloudy solution (binary mix ethanol/water 80/20, after 1 day at room temperature (22° C.)): 3 % wt
Amount dispersed giving non-complete solubilization and a cloudy solution (binary mix glycerol/water 80/20, after 1 day at room temperature (22° C.)): 2 % wt and 1 % wt
Amount dispersed giving non-complete solubilization and a cloudy solution (binary mix propylene glycol/glycerol 33/66, after 2 days at room temperature (22° C.)): 4.6 % wt
Amount of sweetener that was soluble (binary mix propylene glycol/glycerol 33/66, room temperature (22° C.)): 2.6 % wt
Amount dispersed giving non-complete solubilization and a cloudy solution (binary mix propylene glycol/glycerol 50/50, after 2 days at room temperature (22° C.)): 4.6 % wt
Amount of sweetener that was soluble (binary mix propylene glycol/glycerol 50/50, room temperature (22° C.)): 3.8 % wt
Amount dispersed giving non-complete solubilization and a cloudy solution (binary mix propylene glycol/water 80/20, after 2 days at room temperature (22° C.)): 11 % wt
Amount of sweetener that was soluble (binary mix propylene glycol/water 80/20, room temperature (22° C.)): 10 % wt
Amount of sweetener solubilized (glycerol/water 80/20 with 48% wt of glycerol replaced by ethanol): 12%
